Experimental findings from PMC10896213, “Identification of the KIF18A alpha-4 helix as a therapeutic target for chromosomally unstable tumor cells” (Frontiers in Molecular Biosciences, 2023) are described below.

The assay deals with T1, KIF18A (Homo sapiens, UniProt Q8NI77).
T1 construct: KIF18A (1−417); with pig microtubules (tubulin)
T1 sequence (Q8NI77 1-417): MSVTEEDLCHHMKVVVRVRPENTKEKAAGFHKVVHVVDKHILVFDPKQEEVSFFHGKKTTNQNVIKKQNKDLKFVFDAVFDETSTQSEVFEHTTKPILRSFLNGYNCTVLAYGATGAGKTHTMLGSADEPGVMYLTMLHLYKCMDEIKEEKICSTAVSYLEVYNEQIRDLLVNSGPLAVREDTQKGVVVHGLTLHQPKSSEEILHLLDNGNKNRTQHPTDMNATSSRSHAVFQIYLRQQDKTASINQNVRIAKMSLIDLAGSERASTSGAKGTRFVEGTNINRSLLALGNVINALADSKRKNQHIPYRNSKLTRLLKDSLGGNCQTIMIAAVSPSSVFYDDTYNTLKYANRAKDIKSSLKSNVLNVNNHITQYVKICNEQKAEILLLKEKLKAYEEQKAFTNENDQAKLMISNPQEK
The experiment in a line: microtubule-stimulated ATPase assay (ADP-Glo). Type of assay: biochemical.

A word on the IC50: it is the concentration at which inhibition is half-maximal. `Cc1cc(NC(=O)c2cnc(NS(=O)(=O)CCO)cc2N2CCC3(CC2)CC3)nc(N2CCC(F)(F)CC2)n1` [Compound 3] gave an IC50 of 8.2 nM.
